Results on 6 molecules are retold here after US20190308988A1, “OPIOID RECEPTOR ANTAGONIST PRODRUGS” (Nirsum Laboratories, Inc., priority 2017, published 2019).

In one data set the target is T1, DOR (Homo sapiens, UniProt P41143).
T1 construct: expressed in transfected cells
As to the kind of experiment: Opioid receptor binding assay, DOR ([3H]-DADLE). The procedure:
(§1) Receptor binding assays were performed to assess the ability of compounds to inhibit binding to radiolabeled ligand.
(§2) The stable cell lines were established and prepared cell membrane obtained using these cell lines.
(§3) 1) Transfer 1 μl of specified concentration compound to assay plate according to the plate map for nonspecific binding. Transfer 1 μl of DMSO to assay plate according to plate map for total binding. 2) Follow the plate map. Dispense 99 μl of membrane stocks into the plate. 3) Add 100 μl of radio ligand. 4) Seal the plates. Incubate at RT for 1 hour. 5) Soak the Unifilter-96 GF/C filter plates with 50 μl of 0.3% PEI per well for at least 0.5 hour at room temperature. 6) When binding assays are completed, filter the reaction mixture through GF/C plates using Perkin Elmer Filtermate Harvester, and then wash each plate for 4 times with cold wash buffer. 7) Dry the filter plates for 1 hour at 50 degrees. 8) After drying, seal the bottom of the filter plate wells using Perkin Elmer Unifilter-96 backing seal tape. Add 50 μl of Perkin Elmer Microscint 20 cocktail. Seal top of filter plates with Perkin Elmer TopSeal-A sealing film. 9) Count ^3H trapped on filter using Perkin Elmer MicroBeta2 Reader second day. 10) Analyze the data with GraphPad Prism 5. Calculate the “Inhibition [% Control]” using the equation: % Inh=(1−Background subtracted Assay value/Background subtracted HC value)*100.

A further data set has as its target T2, KOR (Homo sapiens, UniProt P41145).
T2 construct: expressed in transfected cells
As to the kind of experiment: Opioid receptor binding assay, KOR ([3H]Diprenorphine). The procedure: as §1, §2, §3

Another data set has as its target T3, MOR (Homo sapiens, UniProt P35372).
T3 construct: expressed in transfected cells
Nature of the data set: Opioid receptor binding assay, MOR ([3H]DAMGO). The procedure: as §1, §2, §3

Data set [1] can be described thus: Solubility determination in oil (Table 10). As to conditions: thermodynamic from solid; for solubility at 24 h: 25 °C, oil or lipid, Heating Temp. 60 °C, Obs. Temp. 25 °C; for solubility thermodynamic: 40 °C, water, Equilibrium solubility: Water, Heating Temp. 40 °C, Obs. Temp. 40 °C. The procedure:
A known amount of test substance (˜40 mg) was weighed into the vial, 100 μL of oil was added and heated to 60° C. and then system was slurried to reach equilibrium. […] Extra oil was added into the vial once compound precipitated out and then the system was re-equilibrated at 1000 rpm at room temperature (25° C.). Final concentration was determined by HPLC method as described below in Table 6a and 6b.

A short description of data set [2]: Dog pharmacokinetic studies, deep intramuscular administration. The class given is in vivo, Beagle dogs. Particulars: for AUC(0-inf) / half-life: Beagle, dog, plasma, im, Cottonseed + 1% Benzyl Alcohol; for AUC(0-inf): read-out: AUC0-inf (ng · h/mL) prodrug; for half-life: read-out: Half-life t1/2 (hour) prodrug (converted). The procedure: The purpose of this study is to determine the pharmacokinetics of test compounds in plasma, following deep intramuscular administration to Beagle dogs (n=3, unless otherwise specified).
The dose formulation (concentration—400 mg base equivalents/ml in sesame oil+1% benzyl alcohol, unless otherwise specified) was administered via deep intramuscularly (unless otherwise specified). The injection vehicle was also dosed via deep intramuscular route (unless otherwise specified) on contralateral site of each animal at study initiation. The animals were sedated with Propofol at 6 mg/kg via IV administration. Following sedation hair was carefully removed from around the injection site and the area gently cleaned. Care will be taken to avoid irritating skin during shaving and cleaning the injection site. Then dogs will be dosed with deep IM administration. At least 2.5 cm depth from the surface into the central aspect of the quadriceps or biceps femoris muscle, by angling the needle toward the femur. If the needle hits the femur, simply draws back slightly and then inject. The dose volume will be determined by the animals' body weight collected on the morning of dosing day. For repeated administration, the injection sites may be rotated to minimize tissue injury.
Blood samples were collected from a peripheral vessel from restrained, non-sedated animals per sampling time point.
Approximately 0.8 mL blood will be collected at each time point.
Each collected blood sample was centrifuged for 4 minutes at 4° C. and 10000 rpm for plasma collection. Plasma was collected and transferred into a pre-labeled PP tube in dry ice at each time point and precipitated immediately using ACN at a ratio of 1:4 (plasma:ACN).
LC-MS/MS methods for the quantitative determination of test compound in biological matrix were developed. […] The sample analysis was performed concurrently with a set of calibration standards and two sets of QC samples using the LC-MS/MS method.
Plasma concentration versus time data was analyzed by non-compartmental approaches using the Phoenix WinNonlin 6.3 software program. Cmax, Tmax, T1/2, AUC(0-t), AUC(0-inf), MRT(0-t), MRT(0-inf) and graphs of plasma concentration versus time profile were prepared.

The mark [3] stands for this setting: Approximate Solubility in Excipient: Cottonseed oil.
[4] abbreviates: Approximate Solubility in Excipient: Sesame oil.
The mark [5] stands for this setting: IM 96 mg/kg, Cottonseed oil + 1% Benzyl Alcohol.

In brackets after ≈: the same amount, converted by molar mass. Like-named read-outs stand apart in the source and are kept apart here.

T3 sequence (P35372 whole entry): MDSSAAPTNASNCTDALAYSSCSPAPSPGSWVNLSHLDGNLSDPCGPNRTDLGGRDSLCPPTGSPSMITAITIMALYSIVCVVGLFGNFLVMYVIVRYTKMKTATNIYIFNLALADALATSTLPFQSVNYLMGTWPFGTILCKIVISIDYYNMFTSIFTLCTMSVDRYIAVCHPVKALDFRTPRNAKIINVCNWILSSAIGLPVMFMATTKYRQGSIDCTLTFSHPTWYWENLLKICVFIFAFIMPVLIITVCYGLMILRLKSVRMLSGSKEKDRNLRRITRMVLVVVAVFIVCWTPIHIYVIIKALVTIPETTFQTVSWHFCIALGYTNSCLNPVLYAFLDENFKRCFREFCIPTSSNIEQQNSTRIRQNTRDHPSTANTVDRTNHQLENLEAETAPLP
T2 sequence (P41145 whole entry): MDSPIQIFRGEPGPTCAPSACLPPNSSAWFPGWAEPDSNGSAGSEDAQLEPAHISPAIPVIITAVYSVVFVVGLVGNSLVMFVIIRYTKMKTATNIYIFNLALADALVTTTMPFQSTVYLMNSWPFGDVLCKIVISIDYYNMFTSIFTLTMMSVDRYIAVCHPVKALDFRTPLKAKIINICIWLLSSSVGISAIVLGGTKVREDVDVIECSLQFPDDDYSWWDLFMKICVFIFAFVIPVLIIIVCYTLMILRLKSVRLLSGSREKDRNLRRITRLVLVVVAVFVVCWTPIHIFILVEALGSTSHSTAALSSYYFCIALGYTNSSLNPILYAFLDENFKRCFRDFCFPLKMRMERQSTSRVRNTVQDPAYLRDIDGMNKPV
T1 sequence (P41143 whole entry): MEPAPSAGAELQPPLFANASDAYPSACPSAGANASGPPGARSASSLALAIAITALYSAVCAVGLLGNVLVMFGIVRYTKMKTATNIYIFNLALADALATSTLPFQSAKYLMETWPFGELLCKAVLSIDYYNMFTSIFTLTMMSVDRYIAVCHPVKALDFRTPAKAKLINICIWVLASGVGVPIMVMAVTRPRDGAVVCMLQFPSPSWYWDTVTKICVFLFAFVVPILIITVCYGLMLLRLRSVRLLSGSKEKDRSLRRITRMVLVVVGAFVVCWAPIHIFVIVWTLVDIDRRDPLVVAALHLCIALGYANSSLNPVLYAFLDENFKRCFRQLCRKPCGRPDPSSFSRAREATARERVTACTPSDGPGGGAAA

Turning to `C=C1CC[C@@]2(O)C3Cc4ccc(OCOC(=O)CCCCCCCCCCCCC)c5c4[C@@]2(CCN3CC2CC2)[C@H]1O5` [Compound 45, (((4aS,7aS,12bS)-3-(cyclopropylmethyl)-4a-hydroxy-7-methylene-2,3,4,4a,5,6,7,7a-octahydro-1H-4,12-methanobenzofuro[3,2-e]isoquinolin-9-yl)oxy)methyl tetradecanoate], the IC50 (as a rule, the point on the concentration scale where inhibition reaches its midpoint) on DOR was found to be 68.4 nM; on KOR, 5.5 nM; on MOR it was 2 nM. The results for the solubility at 24 h in data set [1] (setting [3]) and in data set [1] (setting [4]) were more than 402 mg/mL and 267 to 288 mg/mL (≈ 460 to 497 mM), respectively. The solubility (thermodynamic) (usually solubility found after equilibrating the solid with the medium) in data set [1] was less than 0.001 mg/mL. The AUC(0-inf) in data set [2] (30 mg/kg, IM 30 mg/kg) amounted to 100 ng·h/mL; in data set [2] (48 mg/kg, IM 48 mg/kg), 267 ng·h/mL. In addition, the half-life in data set [2] (30 mg/kg, IM 30 mg/kg) is 151 h; in data set [2] (48 mg/kg, IM 48 mg/kg), 171 h. Further, in data set [2] (setting [5]), the “AUC0-inf (ng · h/mL) prodrug” value is “None”. Moreover, the “Half-life t1/2 (hour) prodrug” value in data set [2] (setting [5]) was “None”.

As to `C=C1CC[C@@]2(O)C3Cc4ccc(OCOC(=O)CCCCCCCCCCC)c5c4[C@@]2(CCN3CC2CC2)[C@H]1O5` [Compound 44, (((4aS,7aS,12bS)-3-(cyclopropylmethyl)-4a-hydroxy-7-methylene-2,3,4,4a,5,6,7,7a-octahydro-1H-4,12-methanobenzofuro[3,2-e]isoquinolin-9-yl)oxy)methyl dodecanoate], the IC50 at DOR worked out at 190 nM; on KOR, 18.4 nM; on MOR it was 3.03 nM. The solubility – broadly, the concentration that dissolves in the medium under given conditions – at 24 h in data set [1] (setting [3]) was more than 407 mg/mL; in data set [1] (setting [4]), 208 to 231 mg/mL (≈ 377 to 419 mM). The same molecule showed a solubility (thermodynamic) in data set [1] of less than 0.001 mg/mL.

`C=C1CC[C@@]2(O)C3Cc4ccc(OCOC(=O)OCCCCCCCCCCCCCCCC)c5c4[C@@]2(CCN3CC2CC2)[C@H]1O5` [Compound 34, (((4aS,7aS,12bS)-3-(cyclopropylmethyl)-4a-hydroxy-7-methylene-2,3,4,4a,5,6,7,7a-octahydro-1H-4,12-methanobenzofuro[3,2-e]isoquinolin-9-yl)oxy)methyl hexadecyl carbonate]: the IC50 is more than 10000 nM on DOR, 1770 nM on KOR and 12.5 nM on MOR. Moreover, the results for the solubility at 24 h in data set [1] (setting [3]) and in data set [1] (setting [4]) were more than 404 mg/mL and more than 405 mg/mL, respectively. The same molecule showed a thermodynamic solubility in data set [1] of less than 0.001 mg/mL.

Regarding `C=C1CC[C@@]2(O)C3Cc4ccc(OC(=O)OCCCCCCCCCCCCCCC)c5c4[C@@]2(CCN3CC2CC2)[C@H]1O5` [Compound 32, (4aS,7aS,12bS)-3-(cyclopropylmethyl)-4a-hydroxy-7-methylene-2,3,4,4a,5,6,7,7a-octahydro-1H-4,12-methanobenzofuro[3,2-e]isoquinolin-9-yl pentadecyl carbonate], the IC50 on DOR is more than 10000 nM; on KOR it was 2120 nM; at MOR, 17.4 nM. Moreover, the solubility at 24 h in data set [1] (setting [3]) is more than 396 mg/mL; in data set [1] (setting [4]) it was more than 410 mg/mL. For the same molecule, in data set [1], the solubility (thermodynamic) came out at 0.0328 mg/mL (≈ 0.0552 mM).

Consider `C=C1CC[C@@]2(O)C3Cc4ccc(OCOC(=O)CCCCCCCCCCCCCCC)c5c4[C@@]2(CCN3CC2CC2)[C@H]1O5` [Compound 46, (((4aS,7aS,12bS)-3-(cyclopropylmethyl)-4a-hydroxy-7-methylene-2,3,4,4a,5,6,7,7a-octahydro-1H-4,12-methanobenzofuro[3,2-e]isoquinolin-9-yl)oxy)methyl hexadecanoate], for which the IC50 was found to be 1360 nM at DOR, 33.9 nM on KOR and 4.52 nM at MOR. Also, the solubility at 24 h in data set [1] (setting [3]) was more than 396 mg/mL; in data set [1] (setting [4]), 202 to 269 mg/mL (≈ 332 to 443 mM). In addition, the thermodynamic solubility in data set [1] was less than 0.001 mg/mL.

Turning to `C=C1CC[C@@]2(O)C3Cc4ccc(OC(=O)OCCCCCCCCCCCCC)c5c4[C@@]2(CCN3CC2CC2)[C@H]1O5` [Compound 30, (4aS,7aS,12bS)-3-(cyclopropylmethyl)-4a-hydroxy-7-methylene-2,3,4,4a,5,6,7,7a-octahydro-1H-4,12-methanobenzofuro[3,2-e]isoquinolin-9-yl tridecyl carbonate], the IC50 came out at 1850 nM at DOR, 88.7 nM at KOR and 9 nM at MOR. The solubility at 24 h in data set [1] (setting [3]) is 252 to 404 mg/mL (≈ 446 to 714 mM); in data set [1] (setting [4]), 253 to 399 mg/mL (≈ 446 to 704 mM). The molecule also gave a thermodynamic solubility in data set [1] of less than 0.001 mg/mL.
